Where “and” joins values, the source holds several entries; their conditions need not be identical. Equal entries are not always repeated. Inconclusive results and toxic doses are left out. Cut-off read from the data, not from the text of the source: active = T/C of 150% or more; inactive = T/C below 125%.
Tested on: L1210 leukemia ip in BDF1 mice, survival T/C
Test: NCI In Vivo Anticancer Drug Screen. Data for tumor model L1210 Leukemia (intraperitoneal) in B6D2F1 (BDF1) mice
Details: endpoint: mean survival time, higher = longer survival
Summary of the method: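 Tumor was transplanted into mice, which were then dosed with test compound or vehicle alone. Survival was recorded for each group, and the treated figure was expressed relative to the control figure.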

[1] = dose: 100.0 mg/kg/injection, schedule: Q04DX002 (ip), vehicle: saline with Tween-80
[2] = dose: 200.0 mg/kg/injection, schedule: Q04DX002 (ip), vehicle: saline with Tween-80
[3] = dose: 100.0 mg/kg/injection, schedule: Q01DX009 (ip), vehicle: Klucel (hydroxypropylcellulose) (HPC)
[4] = dose: 200.0 mg/kg/injection, schedule: Q01DX009 (ip), vehicle: Klucel (hydroxypropylcellulose) (HPC)
[5] = dose: 100.0 mg/kg/injection, schedule: Q04DX003 (ip), vehicle: Klucel (hydroxypropylcellulose) (HPC)
[6] = dose: 200.0 mg/kg/injection, schedule: Q04DX003 (ip), vehicle: Klucel (hydroxypropylcellulose) (HPC)
[7] = dose: 400.0 mg/kg/injection, schedule: Q04DX003 (ip), vehicle: Klucel (hydroxypropylcellulose) (HPC)
[8] = dose: 100.0 mg/kg/injection, schedule: Q04DX003 (ip), vehicle: saline with Tween-80
[9] = dose: 100.0 mg/kg/injection, schedule: Q01DX009 (ip), vehicle: saline with Tween-80
[10] = dose: 50.0 mg/kg/injection, schedule: Q01DX001 (ip), vehicle: saline
[11] = dose: 100.0 mg/kg/injection, schedule: Q01DX001 (ip), vehicle: saline
[12] = dose: 200.0 mg/kg/injection, schedule: Q01DX001 (ip), vehicle: saline
[13] = dose: 400.0 mg/kg/injection, schedule: Q01DX001 (ip), vehicle: saline
[14] = dose: 200.0 mg/kg/injection, schedule: Q01DX009 (ip), vehicle: saline with Tween-80
[15] = dose: 400.0 mg/kg/injection, schedule: Q01DX009 (ip), vehicle: saline with Tween-80
[16] = dose: 100.0 mg/kg/injection, schedule: Q01DX009 (ip), vehicle: saline
[17] = dose: 200.0 mg/kg/injection, schedule: Q01DX009 (ip), vehicle: saline
[18] = dose: 400.0 mg/kg/injection, schedule: Q01DX009 (ip), vehicle: Klucel (hydroxypropylcellulose) (HPC)
[19] = dose: 400.0 mg/kg/injection, schedule: Q04DX002 (ip), vehicle: saline with Tween-80

Measured: T/C

CN=C(c1ccc(NC(=O)c2ccc(C(=O)Nc3ccc(C(=NC)N(C)C(C)=O)cc3)c(Cl)c2)cc1)N(C)C(C)=O
inactive: dose: 25.0 mg/kg/injection, schedule: Q01DX015 (ip), vehicle: methylcellulose (MC) 95 % of control | dose: 50.0 mg/kg/injection, schedule: Q01DX015 (ip), vehicle: methylcellulose (MC) 93 % of control | dose: 75.0 mg/kg/injection, schedule: Q01DX015 (ip), vehicle: methylcellulose (MC) 96 % of control | dose: 200.0 mg/kg/injection, schedule: Q01DX015 (ip), vehicle: methylcellulose (MC) 93 % of control

CCNC(=O)c1ccc2c(c1NCC)C(=O)c1ccccc1C2=O
inactive: dose: 75.0 mg/kg/injection, schedule: Q01DX001 (ip), vehicle: acetone 98 % of control | dose: 150.0 mg/kg/injection, schedule: Q01DX001 (ip), vehicle: acetone 104 % of control | dose: 300.0 mg/kg/injection, schedule: Q01DX001 (ip), vehicle: acetone 104 % of control

Cc1c2ccccc2c2ccccc2[n+]1[O-]
inactive: [1] 97 % of control | [2] 101 % of control

CC(=O)Nn1cnc2ccccc2c1=O
inactive: dose: 50.0 mg/kg/injection, schedule: Q01DX009 (ip), vehicle: Klucel (hydroxypropylcellulose) (HPC) 98 % of control | [3] 98 % of control | [4] 98 % of control

C[n+]1ccc(C(=O)c2ccccc2)cc1
inactive: dose: 75.0 mg/kg/injection, schedule: Q01DX001 (ip), vehicle: saline 94 % of control | dose: 150.0 mg/kg/injection, schedule: Q01DX001 (ip), vehicle: saline 101 % of control

Cc1ccc(S(=O)(=O)N(C)c2cc(Cl)c(C#N)cc2Cl)cc1
inactive: [5] 97 % of control | [6] 97 % of control | [7] 100 % of control

O=C1OCC/C1=C\C1CC=CCC1 (stereo not drawn)
inactive: dose: 67.0 mg/kg/injection, schedule: Q04DX003 (ip), vehicle: saline with Tween-80 96 % of control | [8] 88 % of control | dose: 150.0 mg/kg/injection, schedule: Q04DX003 (ip), vehicle: saline with Tween-80 96 % of control

O=S(=O)(N/C(=C(/c1ccccc1)N(c1ccccc1)S(=O)(=O)c1ccccc1)c1ccccc1)c1ccccc1
inactive: dose: 75.0 mg/kg/injection, schedule: Q01DX001 (ip), vehicle: Klucel (hydroxypropylcellulose) (HPC) 90 % of control | dose: 150.0 mg/kg/injection, schedule: Q01DX001 (ip), vehicle: Klucel (hydroxypropylcellulose) (HPC) 87 % of control | dose: 300.0 mg/kg/injection, schedule: Q01DX001 (ip), vehicle: Klucel (hydroxypropylcellulose) (HPC) 90 % of control

CCCCCCCC(O)CCC(=O)NN (stereo not drawn)
inactive: dose: 25.0 mg/kg/injection, schedule: Q01DX009 (ip), vehicle: saline with Tween-80 98 % of control | dose: 50.0 mg/kg/injection, schedule: Q01DX009 (ip), vehicle: saline with Tween-80 102 % of control | [9] 106 % of control

CCNS(=O)(=O)O
inactive: dose: 25.0 mg/kg/injection, schedule: Q01DX001 (ip), vehicle: saline 98 % of control | [10] 104 % of control | [11] 107 % of control and 120 % of control | [12] 102 % of control | [13] 105 % of control

CC(O)C(O)C(O)CO (stereo not drawn)
inactive: [11] 96 % of control | [12] 111 % of control | [13] 94 % of control

CC1(C)C2CCC1(C)C(NCc1cc(Br)cc(Br)c1O)C2 (stereo not drawn)
inactive: [5] 92 % of control | [6] 97 % of control | [7] 98 % of control

COc1ccc(OC)c(NC(=S)N/N=C/c2cccc3ccccc23)c1
inactive: [9] 100 % of control | [14] 95 % of control | [15] 100 % of control

COC(OC)c1[nH]c(=S)[nH]c(=O)c1Cc1cc([N+](=O)[O-])ccc1O
inactive: [9] 100 % of control | [8] 101 % of control | [14] 91 % of control | dose: 200.0 mg/kg/injection, schedule: Q04DX003 (ip), vehicle: saline with Tween-80 97 % of control | [15] 93 % of control | dose: 400.0 mg/kg/injection, schedule: Q04DX003 (ip), vehicle: saline with Tween-80 94 % of control

S=C(NNc1ccccc1)NC1CCCCC1
inactive: dose: 150.0 mg/kg/injection, schedule: Q01DX009 (ip), vehicle: saline with Tween-80 95 % of control | dose: 225.0 mg/kg/injection, schedule: Q01DX009 (ip), vehicle: saline with Tween-80 97 % of control | dose: 335.0 mg/kg/injection, schedule: Q01DX009 (ip), vehicle: saline with Tween-80 92 % of control

O=C(NCCCCCCNC(=O)NCCN1CCOCC1)NCCN1CCOCC1
inactive: dose: 100.0 mg/kg/injection, schedule: Q04DX002 (ip), vehicle: Klucel (hydroxypropylcellulose) (HPC) 94 % of control | dose: 200.0 mg/kg/injection, schedule: Q04DX002 (ip), vehicle: Klucel (hydroxypropylcellulose) (HPC) 105 % of control | dose: 400.0 mg/kg/injection, schedule: Q04DX002 (ip), vehicle: Klucel (hydroxypropylcellulose) (HPC) 97 % of control

C=CC[N+](CC=C)(CC=C)CC[N+](CC=C)(CC=C)CC=C
inactive: dose: 6.25 mg/kg/injection, schedule: Q01DX009 (ip), vehicle: water 109 % of control | dose: 12.5 mg/kg/injection, schedule: Q01DX009 (ip), vehicle: water 111 % of control | dose: 25.0 mg/kg/injection, schedule: Q01DX009 (ip), vehicle: water 96 % of control and 90 % of control | dose: 50.0 mg/kg/injection, schedule: Q01DX009 (ip), vehicle: water 106 % of control and 87 % of control and 89 % of control | dose: 100.0 mg/kg/injection, schedule: Q01DX009 (ip), vehicle: water 100 % of control

COc1ccc(OC)c2c1CCCC2
inactive: [3] 106 % of control | [4] 117 % of control

COc1cc(Cl)c(CC(=O)c2c[nH]c3ccccc23)cc1OC
inactive: [10] 96 % of control | [11] 93 % of control | [16] 95 % of control | [12] 96 % of control | [17] 98 % of control | [13] 96 % of control | dose: 400.0 mg/kg/injection, schedule: Q01DX009 (ip), vehicle: saline 101 % of control

O=C(CCCCC(=O)Nc1cc(C2=NCCN2)cc(C2N=CCN2)c1)Nc1cc(C2=NCCN2)cc(C2=NCCN2)c1 (stereo not drawn)
inactive: dose: 2.2 mg/kg/injection, schedule: Q01DX Z (ip), vehicle: methylcellulose (MC) 96 % of control | dose: 3.0 mg/kg/injection, schedule: Q01DX Z (ip), vehicle: methylcellulose (MC) 106 % of control | dose: 5.0 mg/kg/injection, schedule: Q01DX Z (ip), vehicle: carboxymethylcellulose (CMC) 120 % of control | dose: 5.0 mg/kg/injection, schedule: Q01DX Z (ip), vehicle: methylcellulose (MC) 101 % of control | dose: 9.0 mg/kg/injection, schedule: Q01DX Z (ip), vehicle: methylcellulose (MC) 87 % of control | dose: 10.0 mg/kg/injection, schedule: Q01DX Z (ip), vehicle: carboxymethylcellulose (CMC) 100 % of control | dose: 15.0 mg/kg/injection, schedule: Q01DX Z (ip), vehicle: carboxymethylcellulose (CMC) 94 % of control

CCCCCCCCCCOc1ccc(/C=N\N=C\c2ccc(OCCCCCCCCCC)cc2)cc1
inactive: [9] 88 % of control | [14] 97 % of control | [15] 95 % of control

CN(C)c1ccc(C=O)c(F)c1
inactive: [3] 96 % of control | [4] 100 % of control | [18] 110 % of control

C/C=C\C1CC2CC(C1C)C2(C)C (stereo not drawn)
inactive: dose: 50.0 mg/kg/injection, schedule: Q01DX009 (ip), vehicle: saline 102 % of control | [16] 97 % of control | [17] 105 % of control

Oc1ccc(O)c2c1C1c3ccccc3C2c2ccccc21
inactive: [11] 86 % of control | [12] 108 % of control

COC(=O)c1ccc(C(=O)O)[n+]([O-])c1
inactive: [3] 93 % of control | [5] 97 % of control | [4] 88 % of control | [6] 103 % of control | [7] 97 % of control

CCOC(=O)/C=C(/C)N
inactive: [1] 95 % of control | [2] 91 % of control | [19] 95 % of control

CC(=O)c1c(C)c([N+](=O)[O-])c(C(C)(C)C)c([N+](=O)[O-])c1C
inactive: [3] 100 % of control | [4] 97 % of control | [18] 96 % of control

O=S(=O)(c1ccc(N=NN2CCOCC2)cc1)N(CCCl)CCCl
inactive: [1] 108 % of control | [2] 115 % of control | [19] 115 % of control
